Residues, ends and D or L forms follow the SMILES beside them.
Tests used:
IFN-γ = test: LPS-induced blood levels of IFN-γ, ELISA (Example 14); assay type: in vivo, mouse; conditions: 10 mcg LAP; 2 and 8 hours after LPS
Procedure: (§1) Plasma samples were obtained by blood obtained from individual mice at sacrifice. TNF-α, IFN-γ and IL-10 were measured by mouse specific solid-phase ELISA according to the manufacturer's (Celbio Euroclone, Milan, Italy) instructions. Intra and inter-assays coefficient of variations were within 10%. The limit of sensitivity of the assays were 7 pg/ml. For statistical analysis, samples with undetectable amounts of cytokine were assigned 7 pg as theoretical value.
(§2) Injection of LPS is associated with a marked increase in the blood levels of both type 1 (IFN-γ, TNF-α, IL-1) and type 2 (IL-10) cytokines that occurs with different kinetic after the inoculation of the toxin. To evaluate the effects of LAP treatment on LPS-induced cytokine increase in the circulation of the mice, experiments were carried out where mice treated with 10 mcg LAP or its vehicle, were sacrificed just before injection of a sublethal dose of LPS one hour after treatment with either LAP or PBS (T0) and then 2 (T2) and 8 (T8) hours after LPS.

[1] = tested on: LPS-induced lethality in mice; test: Potency of LAP in counteracting lethality induced by a DL100 dose of LPS (Example 3); assay type: in vivo, CD1 mice; conditions: for Lethality 24 h / Lethality 24 h (dead/total) / Lethality 48 h / Lethality 48 h (dead/total) / Lethality 72 h / Lethality 72 h (dead/total): LPS 1 mg/mouse
Text: Synthetic peptide or Lajor Active Peptide (LAP) was synthesized chemically to produce the amino acid sequence of the previously-identified bioactive peptide contained in Fractions 2, 3 and 4 of the low molecular weight components of PLB. […] Mice treated with Fraction 4 prepared from PLB were used as positive controls.
Six weeks old female CD1 mice (Charles River, Calco, Italy) were used. The mice were allowed to adapt one week to their environment before commencing the study. They were kept under standard laboratory condition with ad libitum food and water.
The mice were injected i.p. with 1 mg of lipopolysaccharide (LPS) (Sigma Chimica, Milan, Italy). Mortality was recorded every 24 hours up to 72 hours after challenge with LPS.

LPS-induced lethality = test: Time and dose effects of LAP on LPS-induced lethality (Example 14); assay type: in vivo, CD1 mice; conditions: 1 mg LPS i.p.
Procedure: To induce lethal endotoxemia, the mice were injected i.p. with 1 mg lipopolysaccharide (LPS, Cod. L6011, lot 112K4063, Sigma Chimica, Milan, Italy). LAP was provided by Lajor BioTech (Pittsburgh, Pa. USA), dissolved volume/volume in trifluoroacetic acid 0.1% in water and Na2HPO4 and injected ip in a final volume of 100 mcl.
Statistical analysis was performed by chi-square for lethality and one way ANOVA for cytokine measurements. P values lower than 0.05 were taken as significant.

IL-10 = test: Blood levels of IL-10, ELISA (Example 14); assay type: in vivo, mouse
Procedure: as §1, §2

CD4+CD25− T cells = test: T cell proliferation assay, thymidine incorporation (Example 21); assay type: cell-based, Balb/c mouse
Procedure: T cell proliferation assays were set up as follows. Antigen presenting cells (APCs) obtained as single cell suspension from Balb/c mouse spleens were pulsed with fecal extract (from Balb/C mice) overnight in 24 well-plate (1×10^6 cells/ml with 400 μg/ml of extract). Responding cells were obtained from Balb/c mouse spleens as CD4^+CD25^− T cells. CD4+ T cells were selected by DYNABEADS, and CD4^+CD25^− T cells were then selected using labelled anti-CD25 antibody (e.g. PE-labelled anti-CD25). Responding T cells were co-cultured with APC in 96 round bottom well-plate (3.3×10^4 responding cell/1×10^5 APC in 200 μl) in the presence or absence of LAP for 5 days. Immune cell proliferation was then determined by standard thymidine incorporation assays.

TNF-α = test: LPS-induced blood levels of TNF-α, ELISA (Example 14); assay type: in vivo, mouse; conditions: 10 mcg LAP
Procedure: as §1, §2

[2] = tested on: auto-immune diabetes in the NOD mouse; conditions: in vivo
Text: (§3) Female NOD mice (Charles River, Calco, Italy) were maintained under standard laboratory conditions (non-specific pathogen free) with free access to food and water. During the study period of diabetes prevention the mice were screened for diabetes development twice a week by means of glycosuria followed, when positive, by measurement of glycaemia. Mice are diagnosed as diabetic when fasting glycaemia is above 12 mmol/l for 2 consecutive days.
(§4) Euglycaemic female NOD mice were randomly allocated into 4 different groups receiving either LAP or vehicle starting at the 4th or at the 12th week of age. Because insulitis is virtually absent in 4-week-old NOD mice and is actively ongoing at 12 weeks, this approach allowed us to investigate the effects of LAP-treatment in both the early and late diabetogenic stages of the NOD mouse. The readout of the early prohylactic treatment was to evaluate the effect of LAP on development of insulitis, while the readout of the late prophylactic treatment was to evaluate the effect of LAP on the incidence of clinically overt diabetes.
(§5) For the early prophylactic treatment 4-week-old NOD mice were treated with either 10 mcg LAP (dissolved and diluted [100 mcl final volume] as described in Example 14 and 15) or 100 mcl vehicle, daily, six times weekly until the age of 14 weeks. At this point, the euglycaemic mice were sacrificed and their pancreatic specimens collected for histological examination of insulitis.
(§6) For the late prophylactic treatment, 12-week-old NOD mice were randomly divided into two experimental groups, one treated with LAP and the other with vehicle, under the same experimental regime described for the early prophylactic treatment.
(§7) Histological examination of the pancreatic islets was performed in a blind fashion by two pathologists unaware of the status and/or the treatment of the animals, as described previously (See 16-3 to 16-5). The degree of mononuclear cell infiltration is graded as follows: 0, no infiltrate; 1, peri-ductular infiltrate; 2, peri-islet infiltrate; 3, intra-islet infiltrate; 4, intra-islet infiltrate associated with β-cell destruction. At least 12 islets are counted for each mouse. The mean score for each pancreas is calculated by dividing the total score by the numbers of islets.

[3] = tested on: auto-immune diabetes in the NOD mouse; test: LAP in development of insulitis and auto-immune diabetes in NOD mouse (Example 16)
Text: as §3, §4, §5, §6, §7

Con A-induced hepatitis = Con A-induced hepatitis in mice, plasma ALAT, LAP prophylaxis (Example 15); assay type: in vivo, CD1 male mice
Procedure: Eight weeks old outbred CD1 male mice (Charles River, Calco, Italy) were kept under standard laboratory conditions (non-specific pathogen free) at 24° C. with free access to food and water. The food was withdrawn 16 hours prior to the experiments.
Con A (Sigma Chemical, St. Louis, Mo.), dissolved in sterile phosphate-buffered saline (PBS) was injected into the tail veins. The groups were treated with either LAP (dissolved volume/volume in trifluoroacetic acid 0.1% in water and Na2HPO4 and then further diluted in water for injection), or its vehicle, 1 hour prior to and one hour after Con A. An additional group of control mice was injected with Con A and received no treatment. Finally, other two groups of mice were also included for comparison that were either injected i.v. with PBS or received no treatment (Table 8). LAP, its vehicle, PBS and Con A were all injected in a final volume of 100 microliter (mcl). The animals were sacrificed for blood collection 8 hours after Con A injection, when biochemical and signs (transaminases increase) of hepatic injury are pronounced (15-1 to 15-9). Mice dead before sacrifice (Table 8) were not included.
Plasma alanine aminotransferase (ALAT) activity was determined by a standard photometric assay using a bichromatic analyzer. Results are expressed in U/L
Results are shown as mean values ±SD. Statistical analysis was performed by one way ANOVA. The effect of LAP was considered to be statistically significant when the difference of ALAT blood levels versus controls yields a p value at least lower than 0.05.

In the case of CC[C@H](C)[C@H](NC(=O)[C@H](CCC(=O)O)NC(=O)[C@@H](NC(=O)[C@H](C)NC(=O)[C@H](CO)NC(=O)[C@@H](NC(=O)[C@@H](N)CC(N)=O)C(C)C)C(C)C)C(=O)N[C@@H](C)C(=O)O [LAP, NH2-NVSAVEIA-COOH] (H-NVSAVEIA-OH), the “LPS-induced blood levels of IFN-γ (in words)” value (IFN-γ) is reported as “did not modify”, the “Lethality 24 h” value ([1]; 2.5 mcg at −24, −1 h) is reported as 10% and the “Lethality 24 h (dead/total)” value ([1]; 2.5 mcg at −24, −1 h) is reported as “(2/20)”. The “Lethality 48 h” value ([1]; 2.5 mcg at −24, −1 h) was 35%, the “Lethality 48 h (dead/total)” value ([1]; 2.5 mcg at −24, −1 h) was “(7/20)” and the “Lethality 72 h” value ([1]; 2.5 mcg at −24, −1 h) was 80%. The “Lethality 72 h (dead/total)” value ([1]; 2.5 mcg at −24, −1 h) was “(16/20)”, the “Lethality 24 h” value ([1]; 10 mcg at −24, −1 h) was 10% and the “Lethality 24 h (dead/total)” value ([1]; 10 mcg at −24, −1 h) was “(2/20)”. The “Lethality 48 h” value ([1]; 10 mcg at −24, −1 h) was 35%, the “Lethality 48 h (dead/total)” value ([1]; 10 mcg at −24, −1 h) was “(7/20)” and the “Lethality 72 h” value ([1]; 10 mcg at −24, −1 h) was 50%. The “Lethality 72 h (dead/total)” value ([1]; 10 mcg at −24, −1 h) was “(10/20) c”, the “kinetic and cumulative rate of lethality (in words)” value ([1]; different doses of LAP tested) was “unaffected” and the “cumulative rate of lethality (in words)” value ([1]; prophylactic treatment with 10 ucg) was “markedly reduced”. The “Lethality 72 h” value (LPS-induced lethality; 1 mcg at −24, −1 h) was “(79%)”, the “Lethality 72 h (dead/total)” value (LPS-induced lethality; 1 mcg at −24, −1 h) was 11/14 and the “Lethality 72 h” value (LPS-induced lethality; 10 mcg at +1 h) was “(71%)”. For the same compound, the “Lethality 72 h (dead/total)” value (LPS-induced lethality; 10 mcg at +1 h) was 10/14, the “Lethality 72 h” value (LPS-induced lethality; 10 mcg at −1, +1 h) was “(14%)” and the “Lethality 72 h (dead/total)” value (LPS-induced lethality; 10 mcg at −1, +1 h) was 2/14. The “Lethality 72 h” value (LPS-induced lethality; 10 mcg at −24, −1 h) was “(14%)”, the “Lethality 72 h (dead/total)” value (LPS-induced lethality; 10 mcg at −24, −1 h) was 2/14 and the “Lethality 72 h” value (LPS-induced lethality; 20 mcg at −1, +1 h) was “(100%)”. For the same compound, the “Lethality 72 h (dead/total)” value (LPS-induced lethality; 20 mcg at −1, +1 h) was 14/14, the “LPS-induced blood levels of IL-10 (in words)” value (IL-10; 10 mcg LAP, 2 and 8 hours after LPS) was “did not modify” and the “mice with detectable levels of IL-10 in the blood” value (IL-10; T0, 1 hour after 10 mcg LAP, before LPS, 0 out of 10 controls) was 3 out of 10. For the same compound, the “CD4+CD25− T cell proliferation in response to antigen-pulsed APCs in the presence of the peptide” value (CD4+CD25− T cells; 5 days co-culture) was “inhibited”, the “T cell proliferation in response to APCs pre-treated with the peptide” value (CD4+CD25− T cells; APCs pre-treated for 24 hours) was “not affected” and the “reduction of TNF-α blood levels vs. controls” value (TNF-α; 2 hours after sublethal LPS (0.5 mg/mouse), p=0.01) was 37.3%. For the same compound, the “reduction of TNF-α blood levels vs. controls” value (TNF-α; 8 hours after sublethal LPS (0.5 mg/mouse), p=0.005) was 76.5%, the “tolerability of long-term administration (clinical appearance and behaviours)” value [2] was “apparently well tolerated” and the “NOD mice that developed diabetes during the treatment period” value ([3]; early prophylaxis, 4 to 14 weeks of age, 2 of 8 vehicle controls) was “None and none”. The insulitis score ([3]; early prophylaxis, 10 mcg daily six times weekly from 4 to 14 weeks of age, vehicle 2±0.9) was 0.9±0.6, the “azotemia and transaminases values vs controls” value ([3]; mice sacrificed at week 14) was “no differences” and the “reduction of ALAT vs controls” value (Con A-induced hepatitis; 8 hours after Con A) was 84.7%. The ALAT values (Con A-induced hepatitis; LAP 1 hour prior to and one hour after Con A, 8 hours after Con A, mean ± SD) was 686 ± 197b U/L and the “Lethality (dead before sacrifice/total)” value (Con A-induced hepatitis; LAP 1 hour prior to and one hour after Con A, within 8 hours) was 1/15.

Source: patent publication US20070123467A1, “Amniotic-derived peptide and uses thereof” (priority 2003, published 2007)
